From patent US20110159515A1, “COMPOSITIONS AND METHODS FOR THE RAPID GROWTH AND DETECTION OF MICROORGANISMS” (SOLUS SCIENTIFIC SOLUTIONS LIMITED, priority 2008, published 2011)

Key:
S. aberdeen [1] = assay: Direct binding Salmonella assay (chemiluminescence immunosorbent)
E. coli = assay: as above
S. aberdeen [2] = assay: Direct binding Salmonella assay on food cultures; conditions: white plate, Lucy 1
Procedure: 25 g of a food sample were added to 225 ml culture medium according to the first aspect of the invention. Alternatively a surface swab may be taken from a 10×10 cm area on a carcass and cultured in 2-5 ml culture medium according to the first aspect of the invention. Specifically the culture medium comprised 1% peptone, 8 g/L sodium tetrathionate and 0.15 mg/L brilliant green. […]
The sample was heated to 100° C. for 5 minutes and allowed to cool. One hundred microlitres of each test sample was added directly to a well of a solid white 96 well high binding microtitre plate (Greiner Bio One) and incubated at 37° C. for 30 minutes. During incubation, the lipid A portion of the LPS binds to the surface of the plate via non-covalent hydrophobic interactions (FIG. 1a (1), FIG. 1b(1)). Following incubation the plate was emptied and the wells washed three times with a wash buffer comprising 0.01M sodium phosphate buffer, pH 7.4, containing 0.147M NaCl and 0.05 (v/v) Tween 20.
White Plate read on Lucy 1 luminometer

CCCCCCCCCCCCOS(=O)(=O)[O-].[Na+] [SDS, sodium dodecyl sulphate]
signal, direct binding Salmonella assay (S. aberdeen [1]; 0.5% (w/v) SDS, conjugate 1:50, S. aberdeen 2.5 × 10^4, black and white plate, tube luminometer): 6697 ± 1676
signal, direct binding Salmonella assay (S. aberdeen [1]; 0.5% (w/v) SDS, conjugate 1:50, S. aberdeen 5 × 10^3, black and white plate, tube luminometer): 1622 ± 21
signal, direct binding Salmonella assay (S. aberdeen [1]; 0.5% (w/v) SDS, conjugate 1:50, S. aberdeen 5 × 10^4, black and white plate, tube luminometer): 12,231 ± 723^
signal, direct binding Salmonella assay (S. aberdeen [1]; 0.5% (w/v) SDS, conjugate 1:50, S. aberdeen 10^4, black and white plate, tube luminometer): 3199 ± 735
signal, direct binding Salmonella assay (S. aberdeen [1]; 0.5% (w/v) SDS, conjugate 1:50, S. aberdeen 10^5, black and white plate, tube luminometer): 22,245 ± 529^
signal, direct binding Salmonella assay (S. aberdeen [1]; 0.5% (w/v) SDS, conjugate 1:50, S. aberdeen 10^6, black and white plate, tube luminometer): 59,070 ± 1216
signal, direct binding Salmonella assay (S. aberdeen [1]; 0.5% SDS (second block), conjugate 1:100, 2.5 × 10^4 S. aberdeen, black and white plates): 1,265 ± 46^
signal, direct binding Salmonella assay (S. aberdeen [1]; 0.5% SDS (second block), conjugate 1:100, 5 × 10^3 S. aberdeen, black and white plates): 748 ± 4
signal, direct binding Salmonella assay (S. aberdeen [1]; 0.5% SDS (second block), conjugate 1:100, 10^4 S. aberdeen, black and white plates): 908 ± 10
signal, direct binding Salmonella assay (S. aberdeen [1]; 0.5% SDS (second block), conjugate 1:100, 10^5 S. aberdeen, black and white plates): 3,947 ± 494
signal, direct binding Salmonella assay (S. aberdeen [1]; 0.5% SDS (second block), conjugate 1:100, 10^6 S. aberdeen, black and white plates): 26,621 ± 843^
signal, direct binding Salmonella assay (S. aberdeen [1]; 0.5% SDS (second block), conjugate 1:100, Peptone, black and white plates): 631 ± 38
signal, release and detection of core oligosaccharide (S. aberdeen [1]; 0.5% SDS, 10^1 bacteria (species not given)): 9918 relative light units
signal, release and detection of core oligosaccharide (S. aberdeen [1]; 0.5% SDS, 10^2 bacteria (species not given)): 9987 relative light units
signal, release and detection of core oligosaccharide (S. aberdeen [1]; 0.5% SDS, 10^3 bacteria (species not given)): 30399 relative light units
signal, release and detection of core oligosaccharide (S. aberdeen [1]; 0.5% SDS, 10^5 bacteria (species not given)): 959119 relative light units
signal, release and detection of core oligosaccharide (S. aberdeen [1]; 0.5% SDS, 10^6 bacteria (species not given)): 884352 relative light units
signal, direct binding Salmonella assay (S. aberdeen [1]; 0.5% SDS, conjugate 1:100, 2.5 × 10^4 S. aberdeen, white plate, Lucy I): 95,766 ± 6,186
signal, direct binding Salmonella assay (S. aberdeen [1]; 0.5% SDS, conjugate 1:100, 5 × 10^3 S. aberdeen, white plate, Lucy I): 24,984 ± 1,727
signal, direct binding Salmonella assay (S. aberdeen [1]; 0.5% SDS, conjugate 1:100, 5 × 10^4 S. aberdeen, white plate, Lucy I): 95,766 ± 6,186
signal, direct binding Salmonella assay (S. aberdeen [1]; 0.5% SDS, conjugate 1:100, 10^4 S. aberdeen, white plate, Lucy I): 46,273 ± 2,310
signal, direct binding Salmonella assay (S. aberdeen [1]; 0.5% SDS, conjugate 1:100, 10^5 S. aberdeen, white plate, Lucy I): 166,049 ± 288
signal, direct binding Salmonella assay (S. aberdeen [1]; 0.5% SDS, conjugate 1:100, 10^6 S. aberdeen, white plate, Lucy I): 374,007 ± 24,114
signal, direct binding Salmonella assay (S. aberdeen [1]; 0.5% SDS, conjugate 1:100, Peptone, black and white plate, tube luminometer): 974 ± 107
signal, direct binding Salmonella assay (S. aberdeen [1]; 0.5% SDS, conjugate 1:100, Peptone, white plate, Lucy I): 3,103 ± 267
signal, direct binding Salmonella assay (S. aberdeen [1]; 0.5% SDS, conjugate 1:100, S. aberdeen 2.5 × 10^4, black and white plate, tube luminometer): 3933 ± 379
signal, direct binding Salmonella assay (S. aberdeen [1]; 0.5% SDS, conjugate 1:100, S. aberdeen 5 × 10^3, black and white plate, tube luminometer): 1209 ± 66
signal, direct binding Salmonella assay (S. aberdeen [1]; 0.5% SDS, conjugate 1:100, S. aberdeen 5 × 10^4, black and white plate, tube luminometer): 8721 ± 63
signal, direct binding Salmonella assay (S. aberdeen [1]; 0.5% SDS, conjugate 1:100, S. aberdeen 10^4, black and white plate, tube luminometer): 1606 ± 243
signal, direct binding Salmonella assay (S. aberdeen [1]; 0.5% SDS, conjugate 1:100, S. aberdeen 10^5, black and white plate, tube luminometer): 15,009 ± 871^
signal, direct binding Salmonella assay (S. aberdeen [1]; 0.5% SDS, conjugate 1:100, S. aberdeen 10^6, black and white plate, tube luminometer): 40,190 ± 783^
signal, direct binding Salmonella assay (S. aberdeen [1]; 0.5% SDS, conjugate 1:150, Peptone, black and white plate, tube luminometer): 998 ± 103
signal, direct binding Salmonella assay (S. aberdeen [1]; 0.5% SDS, conjugate 1:150, S. aberdeen 2.5 × 10^4, black and white plate, tube luminometer): 1615 ± 132
signal, direct binding Salmonella assay (S. aberdeen [1]; 0.5% SDS, conjugate 1:150, S. aberdeen 5 × 10^3, black and white plate, tube luminometer): 975 ± 42
signal, direct binding Salmonella assay (S. aberdeen [1]; 0.5% SDS, conjugate 1:150, S. aberdeen 5 × 10^4, black and white plate, tube luminometer): 6576 ± 549
signal, direct binding Salmonella assay (S. aberdeen [1]; 0.5% SDS, conjugate 1:150, S. aberdeen 10^4, black and white plate, tube luminometer): 1415 ± 132
signal, direct binding Salmonella assay (S. aberdeen [1]; 0.5% SDS, conjugate 1:150, S. aberdeen 10^5, black and white plate, tube luminometer): 12,817 ± 975^
signal, direct binding Salmonella assay (S. aberdeen [1]; 0.5% SDS, conjugate 1:150, S. aberdeen 10^6, black and white plate, tube luminometer): 31,571 ± 2
signal, direct binding Salmonella assay (E. coli; 0% SDS, conjugate 1:100, 10^6 E. coli, black and white plates): 579 ± 37
signal, direct binding Salmonella assay (E. coli; 0.1% (w/v) SDS, conjugate 1:100, 10^6 E. coli, white plate, Lucy I): 4,151 ± 256^
signal, direct binding Salmonella assay (E. coli; 0.1% SDS (first block), conjugate 1:100, 10^6 E. coli, black and white plates): 579 ± 37
signal, direct binding Salmonella assay (E. coli; 0.1% SDS (second block), conjugate 1:100, 10^6 E. coli, black and white plates): 658 ± 108
signal, direct binding Salmonella assay (E. coli; 0.2% (w/v) SDS, conjugate 1:100, 10^6 E. coli, white plate, Lucy I): 3,322 ± 479
signal, direct binding Salmonella assay (E. coli; 0.3% SDS, conjugate 1:100, 10^6 E. coli, white plate, Lucy I): 2,491 ± 107
signal, direct binding Salmonella assay (E. coli; 0.4% SDS, conjugate 1:100, 10^6 E. coli, white plate, Lucy I): 3,197 ± 5
signal, direct binding Salmonella assay (E. coli; 0.5% (w/v) SDS (first block), conjugate 1:100, 10^6 E. coli, black and white plates): 684 ± 88
signal, direct binding Salmonella assay (E. coli; 0.5% (w/v) SDS, conjugate 1:50, E. coli 10^6, black and white plate, tube luminometer): 958 ± 242
signal, direct binding Salmonella assay (E. coli; 0.5% SDS (second block), conjugate 1:100, 10^6 E. coli, black and white plates): 714 ± 74
signal, direct binding Salmonella assay (E. coli; 0.5% SDS, conjugate 1:100, 10^6 E. coli, black and white plate, tube luminometer): 922 ± 78
signal, direct binding Salmonella assay (E. coli; 0.5% SDS, conjugate 1:100, 10^6 E. coli, white plate, Lucy I): 4,574 ± 1,885
signal, direct binding Salmonella assay (E. coli; 0.5% SDS, conjugate 1:150, 10^6 E. coli, black and white plate, tube luminometer): 707 ± 11
signal, food culture (S. aberdeen [2]; 0.1% SDS, +ve Chicken (10 C.F.U. S. aberdeen, 18 hours)): 131,488 ± 15,357
signal, food culture (S. aberdeen [2]; 0.1% SDS, +ve Drinking Chocolate (10 C.F.U. S. aberdeen, 18 hours)): 45,626 ± 3204
signal, food culture (S. aberdeen [2]; 0.1% SDS, +ve Mayonnaise (10 C.F.U. S. aberdeen, 18 hours)): 746,670 ± 86,449
signal, food culture (S. aberdeen [2]; 0.1% SDS, −ve Chicken): 3426 ± 316
signal, food culture (S. aberdeen [2]; 0.1% SDS, −ve Drinking Chocolate): 1315 ± 63
signal, food culture (S. aberdeen [2]; 0.1% SDS, −ve Mayonnaise): 4180 ± 610
signal, food culture (S. aberdeen [2]; 0.5% SDS, +ve Chicken (10 C.F.U. S. aberdeen, 18 hours)): 36,770 ± 2,020
signal, food culture (S. aberdeen [2]; 0.5% SDS, +ve Drinking Chocolate (10 C.F.U. S. aberdeen, 18 hours)): 110,756 ± 5737^
signal, food culture (S. aberdeen [2]; 0.5% SDS, +ve Mayonnaise (10 C.F.U. S. aberdeen, 18 hours)): 387,924 ± 106,504
signal, food culture (S. aberdeen [2]; 0.5% SDS, −ve Chicken): 4494 ± 904
signal, food culture (S. aberdeen [2]; 0.5% SDS, −ve Drinking Chocolate): 3266 ± 142
signal, food culture (S. aberdeen [2]; 0.5% SDS, −ve Mayonnaise): 3260 ± 733
